Patent US20220000117A1, “METHOD FOR CONTROLLING DISEASES IN SMALL GRAIN CEREALS, SEED OF SMALL GRAIN CEREALS, AND METHOD FOR SUPPRESSING LODGING DAMAGE IN SMALL GRAIN CEREALS” (KUMIAI CHEMICAL INDUSTRY CO., LTD., priority 2019, published 2022)

Tests used:
[1] = tested on: powdery mildew; assay: Test Example 1: control test of wheat powdery mildew, field, wheat variety Haruyutaka; assay type: in vivo, Blumeria graminis; details: for Degree of Disease Occurrence / Disease Leaf Rate (%): flag leaves, 79 days after seeding
Description: Seed of wheat (variety: Haruyutaka) sterilized in advance with commercial Benlate T wettable powder 20 (“Benlate” is a registered trademark) was used. In Example 1, seed having a mass of 1 kg was mixed into 100 ml of suspension water containing 5 g of dichlobentiazox, air-dried, and then, stripe-sown in a field with a furrow width of 30 cm and a ratio of 163 kg/ha (417 seeds/m^2). In contrast, in Comparative Example 1, seed which had not treated with dichlobentiazox was sown in a field in the same manner, and a spray solution corresponding to that obtained by suspending 500 g of dichlobentiazox in 200 liters of water per 1 ha was sprayed on foliage of wheat three times, during an ear emergence period (63 days after seeding), a flowering period (70 days after seeding), and a flowering end period (77 days after seeding). Similarly, in place of 500 g of dichlobentiazox in Comparative Example 1, 250 g of azoxystrobin (commercial Amistar 20 flowable was used. “Amistar” is a registered trademark) was used in Comparative Example 2, and 125 g of propiconazole (commercial Tilt emulsifiable concentrate 25 was used, “Tilt” is a registered trademark) was used in Comparative Example 3. The presence or absence of disease occurrence and a lesion area ratio of powdery mildew in flag leaves of 30 stems were investigated 79 days after seeding according to the criteria in Table 1, and a disease leaf rate and the degree of disease occurrence were calculated by the following calculation formula (1).
(§1) Degree of Disease Occurrence=Σ(Index×Number of Leaves of Index)/(4×Number of Investigated Leaves)×100 (1)

[2] = tested on: wheat (variety: Norin No. 61); assay: Test Example 2: emergence rate of treated wheat seed; assay type: in vivo; details: 10 days after seeding
Description: Seed having a mass of 1 kg of wheat (variety: Norin No. 61) was mixed into 100 ml of suspension water containing 5 g or 0.5 g of dichlobentiazox or isotianil (commercial Routine flowable was used, “Routine” is a registered trademark) and air-dried, and then, 15 seeds were sown in a plastic pot of 9 cm×9 cm containing horticultural soil and managed in a greenhouse. The number of emerged seeds was investigated 10 days after seeding, and an emergence rate was calculated (Examples 2 to 5). On day 49 after seeding, conidiospores of powdery mildew were sifted over leaves of wheat seedlings and inoculated onto the leaves, a lesion area ratio of powdery mildew in a first leaf was investigated 59 days after seeding according to the criteria in Table 1, and the degree of disease occurrence was calculated by the above calculation formula (1).

[3] = tested on: powdery mildew; assay: Test Example 3: control test of wheat powdery mildew, cup in greenhouse, inoculated; assay type: in vivo, Blumeria graminis; set-up: key to Degree of Disease Occurrence: Σ(index×no. leaves of index)/(4×no. investigated leaves)×100; details: for Degree of Disease Occurrence: 19 days after seeding
Description: as §1
Seed having a mass of 1 kg of wheat (variety: Norin No. 61) was mixed into 100 ml of suspension water containing 5 g or 0.5 g of dichlobentiazox or isotianil and air-dried, and then, 12 seeds were sown in a plastic cup having a diameter of 6 cm containing river sand and managed in a greenhouse. The number of emerged seeds was investigated nine days after seeding, and an emergence rate was calculated (Examples 6 to 9). In Comparative Examples 6 to 9, 20 ml of suspension water of an active ingredient, which had been adjusted to have a concentration shown in Table 4, was sprayed in a frame of 45 cm×45 cm in which a pot of wheat seedlings was placed (corresponding to 1000 L/ha) 14 days after seeding. On day 14 after seeding, conidiospores of powdery mildew were sifted over leaves of wheat seedlings and inoculated onto the leaves (after the sprayed liquid was dried in the case of Comparative Examples), a lesion area ratio of powdery mildew in a first leaf was investigated 19 days after seeding according to the criteria in Table 1, and the degree of disease occurrence was calculated by the above calculation formula (1).

[4] = tested on: powdery mildew; assay: Test Example 5: control test of wheat powdery mildew, field, wheat variety Haruyutaka; assay type: in vivo, Blumeria graminis; details: for Degree of Disease Occurrence / Disease Leaf Rate (%): leaves just below flag leaves, 85 days after seeding
Description: as §1
Seed of wheat (variety: Haruyutaka) sterilized in advance with commercial Benlate T wettable powder 20 (“Benlate” is a registered trademark) was used. In Examples 12, 13, and 14, seed having a mass of 1 kg was mixed into 50 ml of suspension water containing 2.5 g or 1.25 g of dichlobentiazox or 50 ml of suspension water containing 2.5 g of isotianil, air-dried, and then, stripe-sown in a field with a furrow width of 30 cm and a ratio of 100 kg/ha (300 seeds/m^2). Moreover, in Comparative Example 14, seed having a mass of 1 kg was mixed into 50 ml of suspension water containing 2.5 g of tiadinil (commercial V-GET flowable was used, “V-GET” is a registered trademark), air-dried, and then, stripe-sown in a field with a furrow width of 30 cm and a ratio of 100 kg/ha (300 seeds/m^2). The presence or absence of disease occurrence and a lesion area ratio of powdery mildew in leaves just below hag leaves (next leaves) of 30 stems were investigated 85 days after seeding by according to the criteria in Table 1, and a disease leaf rate and the degree of disease occurrence were calculated by the above calculation formula(1).

[5] = tested on: wheat (variety: Norin No. 61); assay: Test Example 4: emergence rate of wheat seed; assay type: in vivo
Description: Seed having a mass of 1 kg of wheat (variety: Norin No. 61) was mixed into 100 ml of suspension water containing 0.5 g of the above compound (6) or compound (3) (synthesis was performed in accordance with a known method, formulated 10% wettable powder was used) and air-dried, and then, 12 seeds were sown in a plastic cup having a diameter of 6 cm containing river sand and managed in a greenhouse. The number of emerged seeds was investigated nine days after seeding, and an emergence rate was calculated (Examples 10 and 11). In Comparative Example 11 and Comparative Example 12, 20 ml of suspension water of an active ingredient, which had been adjusted to have a concentration shown in Table 5, was sprayed in a frame of 45 cm×45 cm in which a pot of wheat seedlings was placed (corresponding to 1000 L/ha) 15 days after seeding. On day 15 after seeding, conidiospores of powdery mildew were sifted over leaves of wheat seedlings and inoculated onto the leaves (after the sprayed liquid was dried in the case of Comparative Examples), a lesion area ratio of powdery mildew in a first leaf was investigated 22 days after seeding according to the criteria in Table 1, and the degree of disease occurrence was calculated by the above calculation formula (1).

[6] = Foliage Treatment, spray 500 g/ha three times
[7] = Seed Treatment 5 g/Seed 1 kg (815 g/ha)
[8] = Seed Treatment 1.25 g/Seed 1 kg (printed: 250 g/ha)
[9] = Seed Treatment 2.5 g/Seed 1 kg (250 g/ha)
[10] = Foliage Spray group, 50 ppm (50 g/ha) 15 days after seeding, emergence counted nine days after seeding
[11] = Seed Treatment 0.5 g/Seed 1 kg (50 g/ha), nine days after seeding

O=S1(=O)N=C(OCc2snc(Cl)c2Cl)c2ccccc21 [Compound (1), Dichlobentiazox]
disease occurrence of powdery mildew, seed treatment compared with foliage spraying of dichlobentiazox (Comparative Example 1) ([1]; Example 1, seed treatment): more suppressed
Degree of Disease Occurrence [1, 6]: 12.6
Disease Leaf Rate (%) [1, 6]: 58.9%
Degree of Disease Occurrence [1, 7]: 0.6
Disease Leaf Rate (%) [1, 7]: 4.4%
disease occurrence of powdery mildew, seed treatment compared with foliage spraying of azoxystrobin and propiconazole (Comparative Examples 2 and 3) ([1]; seed treatment): more suppressed
Emergence Rate (%) ([2]; Seed Treatment 0.5 g/Seed 1 kg (50 g/ha)): 100%
Emergence Rate (%) ([2]; Seed Treatment 5 g/Seed 1 kg (500 g/ha)): 96%
Degree of Disease Occurrence ([3]; Foliage Treatment, spray 50 ppm suspension water (50 g/ha) day 14, first leaf): 52.8
Degree of Disease Occurrence ([3]; Foliage Treatment, spray 500 ppm suspension water (500 g/ha) day 14, first leaf): 44.4
Degree of Disease Occurrence ([3]; Seed Treatment 0.5 g/Seed 1 kg (50 g/ha), inoculated day 14, first leaf): 10.1
Degree of Disease Occurrence ([3]; Seed Treatment 5 g/Seed 1 kg (500 g/ha), inoculated day 14, first leaf): 9.0
disease occurrence of powdery mildew, seed treatment compared with spraying on foliage during a growing period ([3]; seed treatment): suppressed lower
Degree of Disease Occurrence [4, 8]: 0.8
Disease Leaf Rate (%) [4, 8]: 4.4%
Degree of Disease Occurrence [4, 9]: 0.4
Disease Leaf Rate (%) [4, 9]: 2.2%
disease occurrence of powdery mildew, seed treatment compared with seed treatment with tiadinil ([4]; seed treatment): suppresses the disease occurrence of powdery mildew lower

OCc1snc(Cl)c1Cl [Compound (3)]
Emergence Rate (%) [5, 10]: 97.2%
Emergence Rate (%) [5, 11]: 97.2%

O=C(O)c1snc(Cl)c1Cl [Compound (6)]
Emergence Rate (%) [5, 10]: 100%
Emergence Rate (%) [5, 11]: 97.2%
